Laboratory results taken from patent publication US12516039B2, “N-linked isoquinoline amides as LRRK2 inhibitors, pharmaceutical compositions, and uses thereof” (Merck Sharp & Dohme LLC, priority 2020, dated 2026).

Each molecule was assayed against T1, GST-tagged truncated human mutant G2019S LRRK2 (Homo sapiens, UniProt Q5S007, G2019S) (assay: LRRK2 G2019S Km ATP LanthaScreen assay). Settings: 134 μM ATP (Km ATP), LRRKtide substrate, mean of several tests.
T1 construct: GST-tagged truncated human mutant G2019S LRRK2; purchased Life Technologies Corporation (Carlsbad, CA)
T1 sequence (Q5S007 970-2527 G2019S limits assumed): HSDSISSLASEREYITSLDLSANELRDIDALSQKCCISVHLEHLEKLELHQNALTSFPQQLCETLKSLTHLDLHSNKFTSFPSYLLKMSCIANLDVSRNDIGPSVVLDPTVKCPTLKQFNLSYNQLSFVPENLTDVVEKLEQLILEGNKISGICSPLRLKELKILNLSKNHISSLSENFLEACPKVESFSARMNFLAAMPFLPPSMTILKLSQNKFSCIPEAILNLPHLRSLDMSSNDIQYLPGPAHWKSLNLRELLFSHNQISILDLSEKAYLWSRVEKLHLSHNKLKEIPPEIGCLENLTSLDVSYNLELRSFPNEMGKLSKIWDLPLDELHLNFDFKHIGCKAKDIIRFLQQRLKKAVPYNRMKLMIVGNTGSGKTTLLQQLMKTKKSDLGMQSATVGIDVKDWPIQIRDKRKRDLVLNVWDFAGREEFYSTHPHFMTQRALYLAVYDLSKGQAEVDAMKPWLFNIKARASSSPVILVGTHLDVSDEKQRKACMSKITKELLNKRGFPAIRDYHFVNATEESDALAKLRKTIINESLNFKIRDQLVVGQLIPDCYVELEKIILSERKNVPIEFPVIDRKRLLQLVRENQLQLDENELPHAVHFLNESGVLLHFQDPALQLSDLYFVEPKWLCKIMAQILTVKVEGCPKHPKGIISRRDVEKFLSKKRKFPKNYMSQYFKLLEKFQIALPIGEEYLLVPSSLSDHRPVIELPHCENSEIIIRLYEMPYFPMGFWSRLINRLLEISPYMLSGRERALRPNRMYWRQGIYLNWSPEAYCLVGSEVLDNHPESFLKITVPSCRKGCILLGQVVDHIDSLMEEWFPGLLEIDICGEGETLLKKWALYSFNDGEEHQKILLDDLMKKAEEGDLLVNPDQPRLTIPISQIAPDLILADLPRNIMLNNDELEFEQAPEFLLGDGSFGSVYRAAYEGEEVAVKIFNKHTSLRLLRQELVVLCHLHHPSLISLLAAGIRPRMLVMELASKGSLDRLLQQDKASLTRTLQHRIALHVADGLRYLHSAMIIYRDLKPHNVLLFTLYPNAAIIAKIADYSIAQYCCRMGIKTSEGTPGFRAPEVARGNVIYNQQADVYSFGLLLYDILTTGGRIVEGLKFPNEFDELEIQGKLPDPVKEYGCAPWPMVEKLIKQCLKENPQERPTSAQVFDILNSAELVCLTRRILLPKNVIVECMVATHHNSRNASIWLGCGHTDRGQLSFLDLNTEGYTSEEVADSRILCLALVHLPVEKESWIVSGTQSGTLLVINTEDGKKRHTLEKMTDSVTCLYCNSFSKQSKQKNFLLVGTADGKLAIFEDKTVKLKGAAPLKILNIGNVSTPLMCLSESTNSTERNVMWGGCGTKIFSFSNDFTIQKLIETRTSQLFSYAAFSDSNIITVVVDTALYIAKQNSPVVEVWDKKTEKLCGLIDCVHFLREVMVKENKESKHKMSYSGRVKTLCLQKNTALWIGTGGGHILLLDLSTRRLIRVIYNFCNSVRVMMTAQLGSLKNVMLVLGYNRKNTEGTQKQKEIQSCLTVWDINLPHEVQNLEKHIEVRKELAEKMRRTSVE
Assay type: biochemical
Procedure, shortened: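 GST-tagged truncated human LRRK2 G2019S (1.25 nM enzyme solution) was preincubated 15 min with compound, then reacted 90 min at ambient temperature with fluorescein-LRRKtide (400 nM solution) and 134 μM ATP (Km) in Tris pH 8.5. EDTA stop; Tb anti-phospho-LRRKtide TR-FRET (520/495 ratio). IC50 from 4-parameter fits, mean of several runs.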

| Molecule | LRRK2 pIC50 |
| --- | --- |
| O=C(Nc1cc2cc(N3CCc4[nH]ncc4C3)c(Cl)cc2cn1)C1CC1 [Ex-4.3] | 7.85 |
| CC1(N2CCN(c3cc4cc(NC(=O)C5CC56CC6)ncc4cc3Cl)CC2)COC1 (stereo not drawn) [Ex-4.4] | 7.85 |
| CC1(O)CC2(CN(c3cc4cc(NC(=O)C5CC5)ncc4cc3Cl)C2)C1 [Ex-4.5] | 7.72 |
| O=C(Nc1cc2cc(N3CCC(N4CC(F)C4)CC3)c(Cl)cc2cn1)C1CC12CCOCC2 (stereo not drawn) [Ex-4.6] | 8.61 |
| O=C(Nc1cc2cc(N3CCC(N4CC(F)(F)C4)CC3)c(Cl)cc2cn1)C1CC12CCOCC2 (stereo not drawn) [Ex-4.7] | 7.93 |
| CC1(C#N)CCN(c2cc3cc(NC(=O)C4CC45CCOCC5)ncc3cc2Cl)CC1 (stereo not drawn) [Ex-4.8] | 6.68 |
| CCC1C(C(=O)Nc2cc3cc(N4CCC(F)(C#N)CC4)c(Cl)cc3cn2)C1c1cnn(C)c1 (stereo not drawn) [Ex-4.10] | 7.29 |
| Cn1cc(C2CC2C(=O)Nc2cc3cc(N4CCC(F)(C#N)CC4)c(Cl)cc3cn2)cn1 (stereo not drawn) [Ex-4.11] | 7.39 |
| Cc1cc2cnc(NC(=O)C3CC34CCOCC4)cc2cc1N1CCN(C2(C)COCC2O)[C@@H](C)C1 (stereo partly drawn) [Ex-6.10] | 9.26 |
| CC1(N2CCN(c3cc4cc(NC(=O)C5CC56CCOCC6)ncc4cc3C3CC3)CC2)COCC1O (stereo not drawn) [Ex-6.11] | 9.57 |
| CCC1(N2CCN(c3cc4cc(NC(=O)C5CC56CCOCC6)ncc4cc3C)CC2)COCC1O (stereo not drawn) [Ex-6.12] | 9.67 |
| O=C(Nc1cc2cc(N3CCN(C4COC4)CC3)c(Cl)cc2cn1)C1CC1 [Ex-8.1, N-(7-chloro-6-(4-(oxetan-3-yl)piperazin-1-yl)isoquinolin-3-yl)cyclopropanecarboxamide] | 7.99 |
| CN1CCN(c2cc3cc(NC(=O)C4CC4)ncc3cc2Cl)CC1 [Ex-8.2] | 7.53 |
| COCCC(=O)Nc1cc2cc(N3CCN(C4(C)COCC4O)CC3)c(Cl)cc2cn1 (stereo not drawn) [Ex-9.1] | 8.12 |
| CC1(N2CCN(c3cc4cc(NC(=O)C5CCOCC5)ncc4cc3Cl)CC2)COCC1O (stereo not drawn) [Ex-9.2] | 8.74 |
| CC(C)C1CC(C(=O)Nc2cc3cc(N4CCN(C5(C)COCC5O)CC4)c(Cl)cc3cn2)C1 (stereo not drawn) [Ex-9.3] | 8.58 |
| CC1(N2CCN(c3cc4cc(NC(=O)C5CCCO5)ncc4cc3Cl)CC2)COCC1O (stereo not drawn) [Ex-9.4] | 8.40 |
| CC(C)OC1CCC(C(=O)Nc2cc3cc(N4CCN(C5(C)COCC5O)CC4)c(Cl)cc3cn2)OC1 (stereo not drawn) [Ex-9.5] | 8.28 |
| Cc1cc2cnc(NC(=O)C3CC3c3ccccn3)cc2cc1N1CCN(C2(C)COCC2F)CC1 (stereo not drawn) [Ex-9.19] | 10.09 |
| Cc1cc2cnc(NC(=O)C3CC3c3ccccn3)cc2cc1N1CCN(C2(C)CCOC2)CC1 (stereo not drawn) [Ex-9.21] | 10.09 |
| (1R,2R or 1S,2S)-N-[6-[4-((3R,4R or 3S,4S)-4-fluoro-3-methyl-tetrahydrofuran-3-yl)piperazin-1-yl]-7-methyl-3-isoquinolyl]-2-(1-methylpyrazol-3-yl)cyclopropanecarboxamide [Ex-10.59] | 10.09 |
| (1R,2R,3R, or 1R,2S,3R, or 1S,2R,3S, or 1S,2S,3S)-N-[6-[4-((3R,4R or 3S,4S)-4-fluoro-3-methyl-tetrahydrofuran-3-yl)piperazin-1-yl]-7-methyl-3-isoquinolyl]-2-methyl-3-(1-methylpyrazol-4-yl)cyclopropanecarboxamide [Ex-10.58] | 10.09 |
| (1R,2R,3R, or 1R,2S,3R, or 1S,2R,3S, or 1S,2S,3S)-N-[7-chloro-6-[4-((3R,4R or 3S,4S)-4-fluoro-3-methyl-tetrahydrofuran-3-yl)piperazin-4-ium-1-yl]-3-isoquinolyl]-2-methyl-3-(2-pyridyl)cyclopropanecarboxamide [Ex-10.71] | 7.72 |
| (1R,2R,3R, or 1R,2S,3R, or 1S,2R,3S, or 1S,2S,3S)-N-[7-chloro-6-[4-((3R,4R or 3S,4S)-4-fluoro-3-methyl-tetrahydrofuran-3-yl)piperazin-4-ium-1-yl]-3-isoquinolyl]-2-methyl-3-(2-pyridyl)cyclopropanecarboxamide [Ex-10.72] | 10.09 |
| (3R or 3S)-N-[6-[4-((3R,4R or 3S,4S)-4-fluoro-3-methyl-tetrahydrofuran-3-yl)piperazin-1-yl]-7-methyl-3-isoquinolyl]-5,5-dimethyl-tetrahydrofuran-3-carboxamide [Ex-10.93] | 9.90 |
| (3R or 3S)-N-[6-[4-((3R,4R or 3S,4S)-4-fluoro-3-methyl-tetrahydrofuran-3-yl)piperazin-1-yl]-7-methyl-3-isoquinolyl]-5,5-dimethyl-tetrahydrofuran-3-carboxamide [Ex-10.94] | 9.40 |
| (3R or 3S)-N-[6-[4-((3R,4R or 3S,4S)-4-fluoro-3-methyl-tetrahydrofuran-3-yl)piperazin-1-yl]-7-methyl-3-isoquinolyl]-5,5-dimethyl-tetrahydrofuran-3-carboxamide [Ex-10.95] | 9.64 |
| (3R or 3S)-N-[6-[4-((3R,4R or 3S,4S)-4-fluoro-3-methyl-tetrahydrofuran-3-yl)piperazin-1-yl]-7-methyl-3-isoquinolyl]-5,5-dimethyl-tetrahydrofuran-3-carboxamide [Ex-10.96] | 8.99 |

Same assay, conditions: 134 μM ATP (Km ATP), LRRKtide substrate, mean of several tests, read-out: LRRK2 pIC50 (converted)

| Molecule | IC50 |
| --- | --- |
| Cc1cc2cnc(NC(=O)C3CC34CCOCC4)cc2cc1N1CCN(C2(C)COCC2O)C[C@@H]1C (single isomer, unassigned) [Ex-15.2, (R or S)-N-(6-((2R or 2S)-4-(4-(3R,4R or 3S,4S)-hydroxy-3-methyltetrahydrofuran-3-yl)-2-methylpiperazin-1-yl)-7-methylisoquinolin-3-yl)-6-oxaspiro[2.5]octane-1-carboxamide] | 0.0813 nM |
| Cn1ncc(C2CC2C(=O)Nc2cc3cc(N4CCN(C5(C)COCC5O)CC4)c(Cl)cc3cn2)n1 (single isomer, unassigned) [Ex-16.1, (1S,2R or 1S,2S)-N-(N-(7-chloro-6-(4-(4-hydroxy-3-methyltetrahydrofuran-3-yl)piperazin-1-yl)isoquinolin-3-yl)-2-(2-methyl-2H-1,2,3-triazol-4-yl)cyclopropane-1-carboxamide] | 0.145 nM |
| Cn1ncc(C2CC2C(=O)Nc2cc3cc(N4CCN(C5(C)COCC5O)CC4)c(Cl)cc3cn2)n1 (single isomer, unassigned) [Ex-16.2, (1S,2R or 1S,2S)-N-(N-(7-chloro-6-(4-(4-hydroxy-3-methyltetrahydrofuran-3-yl)piperazin-1-yl)isoquinolin-3-yl)-2-(2-methyl-2H-1,2,3-triazol-4-yl)cyclopropane-1-carboxamide] | 0.0813 nM |
| C[C@]1(O)COC[C@@]1(C)N1CCN(c2cc3cc(NC(=O)[C@@H]4CC45CCOCC5)ncc3cc2Cl)CC1 (single isomer, unassigned) [Ex-17.1, (R) or (S)-N-(7-chloro-6-((3R,4R) or (3S,4S)-4-(4-hydroxy-3,4-dimethyltetrahydrofuran-3-yl)piperazin-1-yl)isoquinolin-3-yl)-6-oxaspiro[2.5]octane-1-carboxamide] | 0.0813 nM |
| C[C@]1(O)COC[C@@]1(C)N1CCN(c2cc3cc(NC(=O)[C@@H]4CC45CCOCC5)ncc3cc2Cl)CC1 (single isomer, unassigned) [Ex-17.2, (R) or (S)-N-(7-chloro-6-((3R,4R) or (3S,4S)-4-(4-hydroxy-3,4-dimethyltetrahydrofuran-3-yl)piperazin-1-yl)isoquinolin-3-yl)-6-oxaspiro[2.5]octane-1-carboxamide] | 0.126 nM |
| CC1(O)CCN(c2cc3cc(NC(=O)C4CC4)ncc3cc2Cl)CC1 [Ex-4.2] | 10.5 nM |
| CC1C(C(=O)Nc2cc3cc(N4CCN(C5(C)CCOC5)CC4)c(Cl)cc3cn2)C1c1cnn(C)c1 (stereo not drawn) [Ex-9.6] | 1 nM |
| CCC1C(C(=O)Nc2cc3cc(N4CCN(C5(C)COCC5F)CC4)c(C)cc3cn2)C1c1cnn(C)c1 (stereo not drawn) [Ex-9.20] | 0.0813 nM |
